Source: the NIST ThermoML archive (doi:10.1021/je0301794)

How the values were obtained:
[1] = excess molar enthalpy (molar enthalpy of mixing); xn = mol fraction of the nth substance listed; conditions: 318.15 K, 101.3 kPa, Liquid
[2] = xn = mol fraction of the nth substance listed; conditions: 101.3 kPa, Liquid

CCCCCCCCC [nonane] + COC(=O)OC
[1]
Conditions	excess molar enthalpy [kcal/mol]
x2 = 0	0
x2 = 0.1291	0.24
x2 = 0.2483	0.396
x2 = 0.3498	0.489
x2 = 0.4426	0.538
x2 = 0.5099	0.549
x2 = 0.573	0.55
x2 = 0.627	0.533
x2 = 0.6622	0.515
x2 = 0.6743	0.509
x2 = 0.7043	0.49
x2 = 0.748	0.455
x2 = 0.7814	0.427
x2 = 0.8236	0.378
x2 = 0.8663	0.316
x2 = 0.9069	0.25
x2 = 0.9415	0.18
x2 = 0.9752	0.098

[2]
Conditions	mass density [kg/m3]
293.15 K, x2 = 0	717.7
293.15 K, x2 = 0.0444	724.2
293.15 K, x2 = 0.0909	731.4
293.15 K, x2 = 0.1838	747.3
293.15 K, x2 = 0.28	766.3
293.15 K, x2 = 0.3783	789
293.15 K, x2 = 0.4778	815.8
293.15 K, x2 = 0.5789	847.5
293.15 K, x2 = 0.6816	885.9
293.15 K, x2 = 0.7851	932.5
293.15 K, x2 = 0.8921	991.9
293.15 K, x2 = 0.9461	1028.3
298.15 K, x2 = 0	713.9
298.15 K, x2 = 0.0247	717.5
298.15 K, x2 = 0.083	726.1
298.15 K, x2 = 0.1221	732.4
298.15 K, x2 = 0.1812	742.6
298.15 K, x2 = 0.2278	751.4
298.15 K, x2 = 0.317	770
298.15 K, x2 = 0.3986	789.4
298.15 K, x2 = 0.4701	808.5
298.15 K, x2 = 0.5281	825.7
298.15 K, x2 = 0.601	849.8
298.15 K, x2 = 0.6553	869.8
298.15 K, x2 = 0.7064	890.4
298.15 K, x2 = 0.7517	910.5
298.15 K, x2 = 0.7982	933
298.15 K, x2 = 0.8404	955.5
298.15 K, x2 = 0.8725	973.9
298.15 K, x2 = 0.9073	995.7
298.15 K, x2 = 0.9371	1015.5
298.15 K, x2 = 0.9711	1040.4
303.15 K, x2 = 0	710.1
303.15 K, x2 = 0.0444	716.3
303.15 K, x2 = 0.0909	723.3
303.15 K, x2 = 0.1838	738.9
303.15 K, x2 = 0.28	757.5
303.15 K, x2 = 0.3783	779.7
303.15 K, x2 = 0.4778	805.9
303.15 K, x2 = 0.5789	837
303.15 K, x2 = 0.6816	874.8
303.15 K, x2 = 0.7851	920.7
303.15 K, x2 = 0.8921	979.7
303.15 K, x2 = 0.9461	1015.6
313.15 K, x2 = 0	702.2
313.15 K, x2 = 0.0444	708.3
313.15 K, x2 = 0.0909	715.1
313.15 K, x2 = 0.1838	730.4
313.15 K, x2 = 0.28	748.7
313.15 K, x2 = 0.3783	770.5
313.15 K, x2 = 0.4778	796
313.15 K, x2 = 0.5789	826.7
313.15 K, x2 = 0.6816	864
313.15 K, x2 = 0.7851	909.4
313.15 K, x2 = 0.8921	967.3
313.15 K, x2 = 0.9461	1002.8
318.15 K, x2 = 0	698.1
318.15 K, x2 = 0.0409	703.8
318.15 K, x2 = 0.0763	709
318.15 K, x2 = 0.1089	714
318.15 K, x2 = 0.1249	716.6
318.15 K, x2 = 0.1452	719.9
318.15 K, x2 = 0.1957	728.5
318.15 K, x2 = 0.2309	735
318.15 K, x2 = 0.3153	751.7
318.15 K, x2 = 0.3894	768.3
318.15 K, x2 = 0.4732	789.6
318.15 K, x2 = 0.5442	810.1
318.15 K, x2 = 0.6088	831.2
318.15 K, x2 = 0.6356	840.8
318.15 K, x2 = 0.711	870.1
318.15 K, x2 = 0.761	891.8
318.15 K, x2 = 0.787	904
318.15 K, x2 = 0.8304	926
318.15 K, x2 = 0.8802	954.1
318.15 K, x2 = 0.9335	987.7
318.15 K, x2 = 0.9414	993.1
318.15 K, x2 = 0.972	1015
